Measurements reported in article PMC5681660, “Reduced hepatitis B and D viral entry using clinically applied drugs as novel inhibitors of the bile acid transporter NTCP” (Scientific Reports, 2017).
Counter-ions that a name gives are not always drawn.

Biological target: T1, human NTCP (Homo sapiens, UniProt Q14973)
T1 sequence (Q14973 1-349): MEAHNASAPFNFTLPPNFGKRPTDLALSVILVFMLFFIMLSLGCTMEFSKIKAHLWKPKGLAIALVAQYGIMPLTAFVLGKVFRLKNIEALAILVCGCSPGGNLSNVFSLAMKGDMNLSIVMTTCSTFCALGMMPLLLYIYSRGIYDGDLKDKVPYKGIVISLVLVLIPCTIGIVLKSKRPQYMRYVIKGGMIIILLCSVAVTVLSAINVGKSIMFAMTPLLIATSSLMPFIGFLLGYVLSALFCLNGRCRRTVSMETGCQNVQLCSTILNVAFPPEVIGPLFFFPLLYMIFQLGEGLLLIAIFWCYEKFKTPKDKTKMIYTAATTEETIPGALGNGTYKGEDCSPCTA
Assay: Screening taurocholate uptake assay (96-well, [14C]taurocholate, 10 µM drug)
Details: for B-score functional assay: screening taurocholate uptake, 10 µM drug

[1] = combined ranking of functional and binding screening assays
[2] = ranking over the functional and the binding screening assay

Row | Compound | Ranking score [1] | B-score functional assay | also measured
1 | COc1cc2ncnc(Nc3ccc(F)c(Cl)c3)c2cc1OCCCN1CCOCC1 [Gefitinib] | 629.087 | 0.784 | 
2 | Clc1cc(Cl)c(OCC#CI)cc1Cl [Haloprogin] | 1271.5 |  | B-score functional assay (B-score): 4.15
3 | CN1CCN(c2c(F)cc3c(=O)c(C(=O)O)cn4c3c2SCC4)CC1 [Rufloxacin] | 471.137 | -0.276 | 
4 | CC(O)(CS(=O)(=O)c1ccc(F)cc1)C(=O)Nc1ccc(C#N)c(C(F)(F)F)c1 (stereo not shown) [Bicalutamide] |  | -0.361 | Ranking score [2]: 258.616
5 | CCCCCN(C)CCC(O)(P(=O)([O-])O)P(=O)(O)O.[Na+] [Ibandronate sodium] |  | 0.015 | Ranking score [2]: 183.606
6 | C[C@H](CCC(=O)O)[C@H]1CC[C@H]2[C@@H]3CC[C@@H]4C[C@H](O)CC[C@]4(C)[C@H]3CC[C@]12C [litocholic acid] |  |  | position among the hits of the screen (combined ranking of both screening assays) (1280 drugs at 10 µM, TC uptake and Myrcludex B binding screens combined): ≤ 150
7 | CN1CCN(C(=O)OC2c3nccnc3C(=O)N2c2ccc(Cl)cn2)CC1 (stereo not shown) [Zopiclone] |  | -0.919 | Ranking score [2]: 176.746
8 | O=C(O)Cc1ccccc1Nc1c(Cl)cccc1Cl [Diclofenac sodium] | 464.103 | -1.237 | 
9 | Cl.O.O.O=C1CC[C@@]2(O)[C@H]3Cc4ccc(O)c5c4[C@@]2(CCN3CC2CC2)[C@H]1O5 [Naltrexone hydrochloride dihydrate] |  |  | Ranking score (ranking score beside the functional and binding assay B-scores of the screen): 809.543
10 | CC1(C)O[C@@H]2C[C@H]3[C@@H]4CCC5=CC(=O)CC[C@]5(C)[C@@]4(F)[C@@H](O)C[C@]3(C)[C@]2(C(=O)CCl)O1 [Halcinonide] | 634.219 | 0.608 | 
11 | COC1=C(OC)C(=O)C(CCCCCCCCCCO)=C(C)C1=O [Idebenone] | 488.87 | 0.176 | 
12 | O.O=C1C(O)=C(O)C(=O)C(O)=C1O [Tetrahydroxy-1,4-quinone hydrate] | 603.838 | -0.017 | 
13 | CCOC(=O)O[C@]1(C(=O)OCCl)CC[C@H]2[C@@H]3CCC4=CC(=O)C=C[C@]4(C)[C@H]3[C@@H](O)C[C@@]21C [Loteprednol etabonate] |  | -2.765 | Ranking score [2]: 211.225
14 | CS(=O)(=O)c1ccc([C@@H](O)[C@@H](CF)NC(=O)C(Cl)Cl)cc1 [Florfenicol] |  | -0.913 | Ranking score [2]: 235.125
15 | Clc1ccc(CCC(Cn2ccnc2)Sc2c(Cl)cccc2Cl)cc1 (stereo not shown) [Butoconazole nitrate] |  | -3.692 | Ranking score [2]: 196.25
16 | CC(Oc1c(Cl)cccc1Cl)C1=NCCN1 (stereo not shown) [Lofexidine] | 633.467 | -0.33 | 
17 | CCN(CCCCOC(=O)c1ccc(OC)c(OC)c1)C(C)Cc1ccc(OC)cc1 (stereo not shown) [Mebeverine hydrochloride] | 474.181 | -0.512 | 
18 | C=C1C(=O)O[C@H]2[C@H]1CC/C(C)=C/CC[C@@]1(C)O[C@@H]21 [Parthenolide] | 607.546 | 2.985 | 
19 | CN(C)CCC[C@@]1(c2ccc(F)cc2)OCc2cc(C#N)ccc21 [Escitalopram oxalate] | 540.899 | 0.103 | 
20 | CC(=O)NC1CCSC1=O (racemic) [N-Acetyl-DL-homocysteine Thiolactone] | 563.625 | 0.096 | 
21 | C=CCc1ccccc1OCC(O)CNC(C)C (stereo not shown) [Alprenolol hydrochloride] | 1166.46 |  | B-score functional assay (B-score): 2.549
22 | (S)-(-)-Cycloserine |  | -1.227 | Ranking score [2]: 89.398
23 | CCCc1nc(C)c2c(=O)[nH]c(-c3cc(S(=O)(=O)N4CCN(CC)CC4)ccc3OCC)nn12 [Vardenafil] | 546.31 | -0.039 | 
24 | C=C1C[C@@H]2[C@H](CC[C@]3(C)C(=O)CC[C@@H]23)[C@@]2(C)C=CC(=O)C=C12 [Exemestane] | 568.146 | -0.634 | 
